29 molecules from US11318157B2, “6-6 bicyclic aromatic ring substituted nucleoside analogues for use as PRMT5 inhibitors” (Janssen Pharmaceutica NV, priority 2015, dated 2022) can be followed below.

The target of assay [1] is T1, PRMT5-MEP50 enzyme (Homo sapiens, UniProt O14744).
T1 construct: One virus expresses full length human PRMT5 with Flag-tag at N-terminus; Flag (N); purchased Charles River (Argenta); host or cells: insect cells (Sf9), baculovirus co-infection
As to the kind of experiment: In vitro assay 1a: high throughput mass spectrometer assay of SAH formation, 10 nM enzyme, 60 min. The assay is classed as biochemical. The following applies: averaged values, PRMT5-MEP50, 10 nM enzyme. From the text:
Experimental Procedures In Vitro Assay (Assay 1a and 1b)
PRMT5-MEP50 enzyme was purchased from Charles River (Argenta). The enzyme complex was produced in insect cells (Sf9) infected simultaneously with two baculoviruses. One virus expresses full length human PRMT5 with Flag-tag at N-terminus, the second virus expresses full length MEP50 with His6-TEV cleavage at N-terminus. The protein was affinity purified using anti-Flag (M2) beads eluted with 3×FLAG peptide, followed by His-Select eluted with 0.5M imidazole. Eluted protein was then dialysed against tris-buffered saline (TBS) (pH 8.0) containing 20% glycerol and 3 mM dithiothreitol (DTT).
Full-length untagged human recombinant histone H2A (residues 1-130, Genbank Accession #NM_021052 MW=14.1 kDa) expressed in E. coli was purchased from Reaction Biology Corporation, Cat #HMT-11-146. Reagents used for making reaction buffer or stopping reaction were purchased including Tris base (Sigma Cat #T-1503), NaCl (Sigma Cat #RGF-3270), MgCl2 (Sigma Cat #M0250), DTTI (Invitrogen Cat #15508-013) and Formic Acid (Riedel deHaen, Cat #33015)
High Throughput Mass Spectrometer Assay
PRMT5 catalyzes the sequential methylations of the terminal nitrogen atoms on the guanidine groups of arginine residues within proteins using co-substrate S-adenosyl-L-methionine (AdoMet, SAM), forming mono-methyl (MMA), symmetric-dimethyl arginine (sDMA) and S-adenosyl-L-homocysteine (AdoHcy, SAH). The enzyme activity was determined by following the product SAH formation using high throughput mass spectrometry (Agilent Rapidfire 300 System coupled to a Sciex 4000 series QTrap® triple-quad MS/MS). The reaction buffer was 20 mM Tris-HCl, pH 8.5, 50 mM NaCl, 5 mM MgCl2 and 1 mM DTT. The reaction activity was stopped using 1% formic acid (final concentration).
The IC50 Studies were performed using eleven point dosing series made for each compound by serially diluted 1:2 in dimethyl sulfoxide (DMSO), with point 12 being a DMSO control. Compounds were first spotted to plates, and followed by addition of 2 μM SAM and 0.6 μM H2A (histone H2A) solution mixture. The same volume of enzyme solution was added to initiate the enzymatic reactions. The final concentrations of the reaction are at 1 μM SAM, 0.3 μM H2A and 10 nM enzyme (assay 1a) or 1.25 nM enzyme (assay 1b). The reaction was incubated at 30° C. for 60 minutes (min) when 10 nM enzyme was used and for 120 min when 1.25 nM enzyme was used. Subsequently, the reaction was quenched by addition of formic acid to a final concentration of 1%. The inhibitions of SAH formation in the presence of compounds were calculated as a percentage of the control relative to the uninhibited reaction as a function of inhibitor concentration. The data were fit as follows: Y=Bottom+(Top−Bottom)/(1+10^((log IC50−X)*h))
where IC50 is the inhibitor concentration (same unit as X) at 50% inhibition and h is the Hill slope. Y is percent of inhibition, X is log of compound concentration. Bottom and Top are the plateaus in same units as Y.

The target of assay [2] is T1, PRMT5-MEP50 enzyme. In words: In vitro assay 1b: high throughput mass spectrometer assay of SAH formation, 1.25 nM enzyme, 120 min. The assay is classed as biochemical. In a few lines: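 SAH product measured by RapidFire mass spectrometry after formic acid stop; IC50 from 11-point 1:2 dilutions, four-parameter fit. Reactions at 30 °C in 20 mM Tris pH 8.5 with 1 μM SAM, 0.3 μM H2A: assay 1a 10 nM PRMT5-MEP50, 60 min; assay 1b 1.25 nM, 120 min.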

Assay [3] has as its system nuclear symmetric Arginine dimethylation in A549 cells. In words: PD assay (assay 2): inhibition of nuclear symmetric Arginine dimethylation (SYM10 immunohistochemistry), 48 h. The assay is classed as cell-based. The conditions noted are these: for IC50: Homo sapiens. In a few lines: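 Cells seeded at 400/well overnight, then treated 48 h at 37 °C, final DMSO 0.2%. Fixed and stained with SYM10 antibody plus Alexa 488 secondary, Hoechst and CellMask, then imaged on Opera. Normalized to DMSO (high) and 10 μM reference compound (low); averaged pIC50 reported.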

Setting [4] is: read-out: pIC50 Assay 1a (converted).
[5] abbreviates: averaged values, PRMT5-MEP50, 1.25 nM enzyme, 120 min, read-out: pIC50 Assay 1b (converted).
Where [6] appears, read: A549, averaged values, PD assay, A549 cells, symmetric Arginine dimethylation, read-out: pIC50 Assay 2 (converted).

Structures are written as SMILES. Read-outs that look alike come from different tables or passages of the source.

T1 sequence (O14744 whole entry): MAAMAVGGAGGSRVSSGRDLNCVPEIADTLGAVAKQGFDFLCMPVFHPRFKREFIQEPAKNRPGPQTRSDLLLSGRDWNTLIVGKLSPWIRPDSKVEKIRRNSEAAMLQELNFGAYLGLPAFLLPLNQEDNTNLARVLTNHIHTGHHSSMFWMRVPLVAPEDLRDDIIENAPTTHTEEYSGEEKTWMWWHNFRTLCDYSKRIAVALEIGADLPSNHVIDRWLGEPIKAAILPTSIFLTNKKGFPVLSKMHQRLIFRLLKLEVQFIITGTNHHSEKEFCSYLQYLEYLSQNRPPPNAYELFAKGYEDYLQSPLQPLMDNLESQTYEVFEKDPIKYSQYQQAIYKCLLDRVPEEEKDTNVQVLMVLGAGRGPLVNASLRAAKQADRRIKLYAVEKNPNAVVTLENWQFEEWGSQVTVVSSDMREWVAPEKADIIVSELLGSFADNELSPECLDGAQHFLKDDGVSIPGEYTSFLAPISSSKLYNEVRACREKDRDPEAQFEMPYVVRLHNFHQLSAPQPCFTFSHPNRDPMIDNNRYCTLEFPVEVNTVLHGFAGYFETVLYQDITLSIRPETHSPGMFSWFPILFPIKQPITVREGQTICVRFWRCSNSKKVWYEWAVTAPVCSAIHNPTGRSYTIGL
T1 sequence (Q9BQA1 whole entry partner): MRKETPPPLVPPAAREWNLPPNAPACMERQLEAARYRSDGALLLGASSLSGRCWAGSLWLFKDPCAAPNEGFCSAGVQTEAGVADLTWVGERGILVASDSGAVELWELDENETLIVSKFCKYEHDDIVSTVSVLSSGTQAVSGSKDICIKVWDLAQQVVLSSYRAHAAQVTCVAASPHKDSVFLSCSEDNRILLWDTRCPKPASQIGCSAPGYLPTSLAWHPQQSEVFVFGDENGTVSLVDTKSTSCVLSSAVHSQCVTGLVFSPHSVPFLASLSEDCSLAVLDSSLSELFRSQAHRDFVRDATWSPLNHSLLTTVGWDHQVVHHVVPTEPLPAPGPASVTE

In the case of `Nc1ncnc2c1ccn2[C@@H]1O[C@H](COc2ccc3cccnc3c2I)[C@@H](O)[C@H]1O` [Compound 40], the figures for the IC50 (at PRMT5-MEP50 enzyme [1] (setting [4]); at PRMT5-MEP50 enzyme [2] (setting [5]); in assay [3] (setting [6])) were 2510 nM, 1580 nM and around 12000 nM, respectively.
Take `Nc1ncnc2c1ccn2[C@@H]1O[C@H](COc2ccc3cccnc3c2Cl)[C@@H](O)[C@H]1O` [Compound 41]: the IC50 on PRMT5-MEP50 enzyme [1] (setting [4]) was 6310 nM; at PRMT5-MEP50 enzyme [2] (setting [5]), 10000 nM; in assay [3] (setting [6]), above 10000 nM.
For `Nc1nc(Cl)nc2c1ccn2[C@@H]1O[C@H](COc2ccc3cc(Br)cnc3c2)[C@@H](O)[C@H]1O` [Compound 42], in that order: 50.1 nM, 126 nM and 316 nM.
For `Cc1nc(N)c2ccn([C@@H]3O[C@H](COc4ccc5cc(Br)cnc5c4)[C@@H](O)[C@H]3O)c2n1` [Compound 43] the same measures were 79.4 nM, 200 nM and 316 nM.
Turning to `Nc1ncnc2c1c(F)cn2[C@@H]1O[C@H](COc2ccc3cccnc3c2)[C@@H](O)[C@H]1O` [Compound 44], the IC50 on PRMT5-MEP50 enzyme [1] (setting [4]) was 63.1 nM; at PRMT5-MEP50 enzyme [2] (setting [5]) it was 126 nM; in assay [3] (setting [6]) it was 251 nM.
For `Nc1ncnc2c1ccn2[C@@H]1C[C@H](COc2ccc3cc(Br)cnc3c2)[C@@H](O)[C@H]1O` [Compound 47], in that order: 25.1 nM, 63.1 nM and 50.1 nM.
In the case of `Nc1ncnc2c1ccn2[C@@H]1O[C@H](CNc2ccc3cccnc3c2)[C@@H](O)[C@H]1O` [Compound 49], the IC50 was 3.98 nM on PRMT5-MEP50 enzyme [1] (setting [4]), 10 nM at PRMT5-MEP50 enzyme [2] (setting [5]) and 10 nM in assay [3] (setting [6]).
As for `Nc1ncnc2c1ccn2[C@@H]1O[C@H](CNc2ccc3cc(Cl)cnc3c2)[C@@H](O)[C@H]1O` [Compound 50], the IC50 at PRMT5-MEP50 enzyme [1] (setting [4]) is 10 nM; at PRMT5-MEP50 enzyme [2] (setting [5]), 7.94 nM; in assay [3] (setting [6]), 25.1 nM.
For `Nc1ncnc2c1ccn2[C@@H]1O[C@H](CNc2ccc3cc(Br)cnc3c2)[C@@H](O)[C@H]1O` [Compound 51] the same measures were 10 nM, 15.8 nM and around 15.5 nM.
For `CN(C[C@H]1O[C@@H](n2ccc3c(N)ncnc32)[C@H](O)[C@@H]1O)c1ccc2cc(Br)cnc2c1` [Compound 52] the same measures were 63.1 nM, 158 nM and 398 nM.
Consider `Cc1nc(N)c2ccn([C@@H]3O[C@H](CNc4ccc5cc(Br)cnc5c4)[C@@H](O)[C@H]3O)c2n1` [Compound 53], for which the IC50 on PRMT5-MEP50 enzyme [1] (setting [4]) was 39.8 nM; at PRMT5-MEP50 enzyme [2] (setting [5]) it was 50.1 nM; in assay [3] (setting [6]), 50.1 nM.
`Nc1ncnc2c1ccn2[C@@H]1C[C@H](CNc2ccc3cc(Br)cnc3c2)[C@@H](O)[C@H]1O` [Compound 54]: the figures for the IC50 (at PRMT5-MEP50 enzyme [1] (setting [4]); on PRMT5-MEP50 enzyme [2] (setting [5]); in assay [3] (setting [6])) were 15.8 nM, 15.8 nM and 31.6 nM, respectively.
With `Nc1ncnc2c1ccn2[C@@H]1C[C@H](CNc2ccc3cc(Br)cnc3c2)[C@@H](O)[C@H]1O` [Compound 54a], the IC50 at PRMT5-MEP50 enzyme [1] (setting [4]) was 7.94 nM. Besides, the “pIC50 Assay 1b” value at PRMT5-MEP50 enzyme [2] (averaged values, PRMT5-MEP50, 1.25 nM enzyme, 120 min) is reported as 7.8. For the same molecule, in assay [3] (averaged values, PD assay, A549 cells, symmetric Arginine dimethylation), the “pIC50 Assay 2” value is 7.4.
Consider `Nc1ncnc2c1ccn2[C@@H]1C[C@H](/C=C/c2ccc3cccnc3c2)[C@@H](O)[C@H]1O` [Compound 55], for which the values for the IC50 (against PRMT5-MEP50 enzyme [1] (pIC50 Assay 1a); against PRMT5-MEP50 enzyme [2]; in assay [3] (setting [6])) were 7.94 nM, 31.6 nM and around 51.3 nM, respectively.
Take `Nc1ncnc2c1ccn2[C@@H]1C[C@H](CCc2ccc3cccnc3c2)[C@@H](O)[C@H]1O` [Compound 56]: the IC50 at PRMT5-MEP50 enzyme [1] (setting [4]) was 6.31 nM; at PRMT5-MEP50 enzyme [2] (setting [5]), 15.8 nM; in assay [3] (A549, read-out: pIC50 Assay 2 (converted)), 7.94 nM.
For `Nc1ncnc2c1ccn2[C@@H]1O[C@H](/C=C/c2ccc3cc(Cl)cnc3c2)[C@@H](O)[C@H]1O` [Compound 57a], the IC50 is 31.6 nM at PRMT5-MEP50 enzyme [1] (setting [4]), 50.1 nM at PRMT5-MEP50 enzyme [2] (setting [5]) and 63.1 nM in assay [3] (setting [6]).
For `Nc1ncnc2c1ccn2[C@@H]1C[C@H](CCc2ccc3cc(Cl)cnc3c2)[C@@H](O)[C@H]1O` [Compound 58], in that order: 12.6 nM, 20 nM and 39.8 nM.
For `Nc1ncnc2c1ccn2[C@@H]1O[C@H](CCc2ccc3cc(Cl)cnc3c2)[C@@H](O)[C@H]1O` [Compound 59], in that order: 25.1 nM, 79.4 nM and 126 nM.
For `Nc1ncnn2c([C@@H]3O[C@H](COc4ccc5cccnc5c4)[C@@H](O)[C@H]3O)ccc12` [Compound 60], in that order: 251 nM, 398 nM and 1260 nM.
Turning to `Nc1ncnn2c([C@@H]3O[C@H](/C=C/c4ccc5cccnc5c4)[C@@H](O)[C@H]3O)ccc12` [Compound 61], the IC50 on PRMT5-MEP50 enzyme [1] (setting [4]) was 398 nM; at PRMT5-MEP50 enzyme [2] (setting [5]), 1000 nM; in assay [3] (setting [6]), around 1320 nM.
For `Nc1ncnn2c([C@@H]3O[C@H](CCc4ccc5cccnc5c4)[C@@H](O)[C@H]3O)ccc12` [Compound 62], in that order: 631 nM, 794 nM and 1580 nM.
For `Nc1ncnc2c1ccn2[C@@H]1O[C@H](C#Cc2ccc3cccnc3c2)[C@@H](O)[C@H]1O` [Compound 63] the same measures were 25.1 nM, 126 nM and 200 nM.
With `Nc1ncnc2c1ccn2[C@@H]1C[C@H](OCc2ccc3cccnc3c2)[C@@H](O)[C@H]1O` [Compound 64], the IC50 against PRMT5-MEP50 enzyme [1] (pIC50 Assay 1a) is 126 nM; against PRMT5-MEP50 enzyme [2], 794 nM; in assay [3] (setting [6]), around 1070 nM.
On to `Nc1ncnc2c1ccn2[C@@H]1C[C@H](OCc2ccc3ncccc3c2)[C@@H](O)[C@H]1O` [Compound 65], for which the IC50 is 3160 nM on PRMT5-MEP50 enzyme [1] (setting [4]), 1000 nM at PRMT5-MEP50 enzyme [2] (setting [5]) and 15800 nM in assay [3] (setting [6]).
For `Nc1ncnc2c1ccn2[C@@H]1C[C@H](Cc2ccc3cccnc3c2)[C@@H](O)[C@H]1O` [Compound 66], in that order: 2000 nM, 5010 nM and above 20000 nM.
Regarding `Nc1ncnc2c1ccn2[C@@H]1O[C@H](COc2ccc3ccnnc3c2)[C@@H](O)[C@H]1O` [Compound 69], the figures for the IC50 (on PRMT5-MEP50 enzyme [1] (setting [4]); on PRMT5-MEP50 enzyme [2] (setting [5]); in assay [3] (setting [6])) were 631 nM, 3160 nM and above 20000 nM, respectively.
For `N#Cc1ccc2ccc(OC[C@H]3O[C@@H](n4ccc5c(N)ncnc54)[C@H](O)[C@@H]3O)cc2n1` [Compound 70], in that order: 631 nM, 1580 nM and 6310 nM.
For `COc1ncnc2c1ccn2[C@@H]1O[C@H](COc2ccc3cc(Br)cnc3c2)[C@@H](O)[C@H]1O` [Compound 71], in that order: 3160 nM, 2000 nM and 10000 nM.
As for `CC(C)C(=O)O[C@@H]1[C@H](OC(=O)C(C)C)[C@@H](COc2ccc3ccc(C(F)(F)F)nc3c2)O[C@H]1n1ccc2c(N)ncnc21` [Compound 72], the values for the IC50 (at PRMT5-MEP50 enzyme [1] (setting [4]); on PRMT5-MEP50 enzyme [2] (setting [5]); in assay [3] (setting [6])) were above 10000 nM, above 100000 nM and above 10000 nM, respectively.
